Measured values taken from US20260250320A1, “LIPIDATED PEPTIDE INHIBITORS OF INTERLEUKIN-23 RECEPTOR” (Janssen Pharmaceutica NV, priority 2023, published 2026).
*1 amine or outer side, *2 acyl side, *3 side chain or, on linkers, in order; H or OH if unused. Where a SMILES comes first, the peptide text is derived from it. Bridges are numbered along the chain shown (N, C = ends). Side-chain parts run from the residue outwards. [ ]: non-standard residue; d: D form. The star is where a group is joined. ξ: configuration not given here. X30 = C[N+](C)(CCCC(=O)CCOCCOCCOCCOCCOCCOCCNC(=O)CC[C@H](NC(=O)CCCCCCCCCCCCCCCCC(=O)O)C(=O)O)CC(=O)*; X21 = NC(=O)C[C@H](N[*:1])C(=O)C[C@@H](Cc1cccnc1)C(=O)[*:2]; Me3N+(CH2)2O(CH2)2O(CH2)2CO = C[N+](C)(C)CCOCCOCCC(=O)*; PEG12 = NCCOCCOCCOCCOCCOCCOCCOCCOCCOCCOCCOCCOCCC(=O)O; CH2CH2OCH2CH2OCH2CH2NMe3+ = C[N+](C)(C)CCOCCOCC*; Trp(7-Me) = Cc1cccc2c(C[C@H](N)C(=O)O)c[nH]c12; C20 diacid = O=C(O)CCCCCCCCCCCCCCCCCCC(=O)*; C18 diacid = O=C(O)CCCCCCCCCCCCCCCCC(=O)*; γGlu = O=C(O)[C@H](CCC(=O)[*:2])N[*:1]; 2Nal = N[C@@H](Cc1ccc2ccccc2c1)C(=O)O; AEF = NCCOc1ccc(C[C@H](N)C(=O)O)cc1; X2 = C[N+](C)(C)C[C@@H](CC(=O)O)N*; 3Pal = N[C@@H](Cc1cccnc1)C(=O)O; Lys(Me) = CNCCCC[C@H](N)C(=O)O; Pen = CC(C)(S)[C@H](N)C(=O)O; Suc = O=C(CCC(=O)[*:2])[*:1]; ξ3Pal = NC(Cc1cccnc1)C(=O)O; Ac6c = NC1(C(=O)O)CCCCC1; Thp = NC1(C(=O)O)CCOCC1; Abu = CC[C@H](N)C(=O)O; X1 = C[N+](C)(C)CCCCC*; X31 = C=C(CN(C)*)N(C)C; AEEA = NCCOCCOCC(=O)O; Sar = CNCC(=O)O

What was measured:
IL-23R = biological target: T1, IL-23R (Homo sapiens, UniProt Q5VWK5); test: IL23R Reporter Assay; assay type: cell-based; settings: HEK293 cells containing IL-23R, IL-12Rβ1 and STAT-inducible firefly luciferase reporter; 10 ng/mL IL-23 (EC90); 5 h
T1 construct: HEK293 cells containing IL-23R, IL-12Rβ1 and a firefly luciferase reporter gene driven by a STAT-inducible promoter (Promega); host or cells: HEK293
T1 sequence (Q5VWK5 24-629): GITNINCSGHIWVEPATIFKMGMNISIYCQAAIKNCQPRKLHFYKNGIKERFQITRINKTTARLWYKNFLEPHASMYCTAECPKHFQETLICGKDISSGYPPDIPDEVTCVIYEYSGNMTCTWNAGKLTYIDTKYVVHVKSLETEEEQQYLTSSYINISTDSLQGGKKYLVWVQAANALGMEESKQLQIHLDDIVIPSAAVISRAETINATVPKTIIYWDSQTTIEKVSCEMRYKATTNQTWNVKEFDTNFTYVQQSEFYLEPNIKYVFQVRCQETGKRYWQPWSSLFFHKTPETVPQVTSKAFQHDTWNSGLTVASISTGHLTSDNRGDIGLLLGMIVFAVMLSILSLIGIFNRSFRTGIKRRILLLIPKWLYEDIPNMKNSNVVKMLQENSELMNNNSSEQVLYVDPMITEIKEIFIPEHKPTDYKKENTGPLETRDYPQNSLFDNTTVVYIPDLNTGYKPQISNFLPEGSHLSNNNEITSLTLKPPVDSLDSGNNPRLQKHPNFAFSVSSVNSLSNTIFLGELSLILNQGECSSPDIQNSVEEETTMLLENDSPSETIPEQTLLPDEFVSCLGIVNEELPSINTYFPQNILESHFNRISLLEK
Procedure, shortened: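 HEK293 cells carrying IL-23R, IL-12Rβ1 and a STAT-driven firefly luciferase reporter (4000 cells/well) received compound, then 10 ng/mL IL-23 solution (EC90), and were incubated for 5 h at 37° C. BioGlo luminescence was normalised to IL-23 alone (0%) and 30 μM control inhibitor (100%). IC50 came from a 4-parameter Hill fit.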

[1] = tested on: IL-23-stimulated phosphorylated STAT3 in peripheral blood mononuclear cells (PBMCs); test: PBMC pSTAT3 Assay; assay type: cell-based; settings: PBMCs from healthy donors; 30 min preincubation with peptide; IL-23 5 ng/mL for 30 min; phospho-STAT3 by MSD
Procedure, shortened: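 Healthy-donor PBMCs expanded 4 days on anti-CD3 with 100 ng/mL IL-1β, starved ~4 h in RPMI-0.1% BSA, preincubated 30 min with peptide, then stimulated 30 min at 37 °C with 5 ng/mL IL-23. Lysate pSTAT3 measured by MSD phospho-STAT panel; IC50 derived.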

IC50 (IL-23R)	SMILES	IC50 [1]
50 to 500 nM	CC(=O)NCCCC[C@@H]1NC(=O)[C@H](Cc2c[nH]c3c(C)cccc23)NC(=O)[C@H]([C@@H](C)O)NC(=O)[C@H](CC(N)=O)NC(=O)[C@@H](NC(C)=O)C(C)(C)SSC(C)(C)[C@@H](C(=O)N[C@@H](Cc2ccc(OCCN)cc2)C(=O)N[C@@H](Cc2ccc3ccccc3c2)C(=O)NC2(C(=O)N[C@@H](CCC(=O)O)C(=O)N[C@@H](CC(N)=O)C(=O)N[C@@H](Cc3cccnc3)C(=O)N(C)CC(=O)N[C@@H](CCCCNC(=O)COCCOCCNC(=O)COCCOCCNC(=O)CC[C@H](NC(=O)CCCCCCCCCCCCCCCCC(=O)O)C(=O)O)C(N)=O)CCOCC2)NC1=O [compound 160, cPEG3aCO-r-Pen(3)-N-T-7MeW-K(Ac)-Pen(3)-AEF-2Nal-THP-E-N-3Pya-Sar-K(PEG2PEG2gEC18OH)-CONH2]	< 0.5 nM
≥ 500 nM	CC(=O)NCCCC[C@@H]1NC(=O)[C@H](Cc2c[nH]c3c(C)cccc23)NC(=O)[C@H]([C@@H](C)O)NC(=O)[C@H](CC(N)=O)NC(=O)[C@@H](NC(C)=O)C(C)(C)SSC(C)(C)[C@@H](C(=O)N[C@@H](Cc2ccc(OCCN)cc2)C(=O)N[C@@H](Cc2ccc3ccccc3c2)C(=O)NC2(C(=O)N[C@@H](CCC(=O)O)C(=O)N[C@@H](CC(N)=O)C(=O)N[C@@H](Cc3cccnc3)C(=O)N(C)CC(=O)OCCOCCOCCNC(=O)COCCOCCNC(=O)CC[C@H](NC(=O)CCCCCCCCCCCCCCCCC(=O)O)C(=O)O)CCOCC2)NC1=O [compound 147, MeCO-Pen(3)-N-T-7MeW-K(Ac)-Pen(3)-AEF-2Nal-THP-E-N-3Pya-Sar-CO(PEG2PEG2gEC18OH)]	0.5 to 5 nM
50 to 500 nM	CC(=O)N[C@H](CCCNC(=N)N)C(=O)N[C@@H]1C(=O)N[C@@H](CC(N)=O)C(=O)N[C@@H]([C@@H](C)O)C(=O)N[C@@H](Cc2c[nH]c3c(C)cccc23)C(=O)N[C@@H](CCCCNC(=O)CCC(=O)N[C@H](CC(=O)O)C[N+](C)(C)C)C(=O)N[C@H](C(=O)N[C@@H](Cc2ccc(OCCN)cc2)C(=O)N[C@@H](Cc2ccc3ccccc3c2)C(=O)NC2(C(=O)N[C@@H](CCC(=O)O)C(=O)N[C@@H](CC(N)=O)C(=O)N[C@@H](Cc3cccnc3)C(=O)N(C)CC(=O)N[C@@H](CCCCNC(=O)COCCOCCNC(=O)COCCOCCNC(=O)CC[C@H](NC(=O)CCCCCCCCCCCCCCCCC(=O)O)C(=O)O)C(N)=O)CCOCC2)C(C)(C)SSC1(C)C [compound 52, MeCO-r-Pen(3)-N-T-7MeW-K(d)-Pen(3)-AEF-2Nal-THP-E-N-3Pya-Sar-K(PEG2PEG2gEC18OH)-CONH2] (Ac-[dR][Pen]NT[Trp(7-Me)]K([Suc-X2])[Pen][AEF][2Nal][Thp]EN[3Pal][Sar]K([AEEA-AEEA-γGlu-C18 diacid])-NH2; disulfide 2-7)	< 0.5 nM
50 to 500 nM	CC(=O)N[C@H](CCCNC(=N)N)C(=O)N[C@@H]1C(=O)N[C@@H](CC(N)=O)C(=O)N[C@@H]([C@@H](C)O)C(=O)N[C@@H](Cc2c[nH]c3c(C)cccc23)C(=O)N[C@@H](CCCCNC(=O)COCCOCCNC(=O)COCCOCCNC(=O)CC[C@H](NC(=O)CCCCCCCCCCCCCCCCC(=O)O)C(=O)O)C(=O)N[C@H](C(=O)N[C@@H](Cc2ccc(OCCN)cc2)C(=O)N[C@@H](Cc2ccc3ccccc3c2)C(=O)NC2(C(=O)N[C@@H](CCCCN(C)C(=O)CCOCCOCC[N+](C)(C)C)C(=O)N[C@@H](CC(N)=O)C(=O)C[C@@H](Cc3cccnc3)C(=O)N(C)CC(N)=O)CCOCC2)C(C)(C)SSC1(C)C [compound 79, MeCO-r-Pen(3)-N-T-7MeW-K(PEG2PEG2gEC18OH)-Pen(3)-AEF-2Nal-THP-K(NMecPEG3a)-N-3Pya-Sar-CONH2] (Ac-[dR][Pen]NT[Trp(7-Me)]K([AEEA-AEEA-γGlu-C18 diacid])[Pen][AEF][2Nal][Thp][Lys(Me)](Me3N+(CH2)2O(CH2)2O(CH2)2CO)[X21][Sar]-NH2; disulfide 2-7)	< 0.5 nM
< 50 nM	CC(=O)NCCCC[C@@H]1NC(=O)[C@H](Cc2c[nH]c3c(C)cccc23)NC(=O)[C@H]([C@@H](C)O)NC(=O)[C@H](CC(N)=O)NC(=O)[C@@H](NC(=O)[C@@H](CCCNC(=N)N)NC(=O)COCCOCCNC(=O)COCCOCCNC(=O)CC[C@H](NC(=O)CCCCCCCCCCCCCCCCC(=O)O)C(=O)O)C(C)(C)SSC(C)(C)[C@@H](C(=O)N[C@@H](Cc2ccc(OCCCCC[N+](C)(C)C)cc2)C(=O)N[C@@H](Cc2ccc3ccccc3c2)C(=O)NC2(C(=O)N[C@@H](CCC(=O)O)C(=O)N[C@@H](CC(N)=O)C(=O)N[C@@H](Cc3cccnc3)C(=O)N(C)CC(N)=O)CCOCC2)NC1=O [compound 83, HOC18gEPEG2PEG2CO-r-Pen(3)-N-T-7MeW-K(Ac)-Pen(3)-TMAPF-2Nal-THP-E-N-3Pya-Sar-CONH2] ({C18 diacid-γGlu-AEEA-AEEA}-[dR][Pen]NT[Trp(7-Me)]K(Ac)[Pen]Y(X1)[2Nal][Thp]EN[3Pal][Sar]-NH2; disulfide 2-7)	< 0.5 nM

Second part, the molecule before the results:

SMILES	IC50 (IL-23R)	IC50 [1]
CC(=O)N(C)CCCC[C@@H]1NC(=O)[C@H](Cc2c[nH]c3c(C)cccc23)NC(=O)[C@H]([C@@H](C)O)NC(=O)[C@H](CC(=O)N(C)C)NC(=O)[C@@H](NC(=O)COCCOCCNC(=O)COCCOCCNC(=O)CC[C@H](NC(=O)CCCCCCCCCCCCCCCCCCC(=O)O)C(=O)O)C(C)(C)SSC(C)(C)[C@@H](C(=O)N[C@@H](Cc2ccc(OCCOCCOCC[N+](C)(C)C)cc2)C(=O)N[C@@H](Cc2ccc3ccccc3c2)C(=O)NC2(C(=O)N[C@@H](CCCCN(C)C(C)=O)C(=O)N[C@@H](CC(N)=O)C(=O)N[C@@H](Cc3cccnc3)C(=O)N(C)CC(=O)N(C)C)CCOCC2)NC1=O [compound 110, HOC20gEPEG2PEG2CO-Pen(3)-N(N(Me)2)-T-7MeW-K(NMeAc)-Pen(3)-APEG3F-2Nal-THP-K(NMeAc)-N-3Pya-Sar-CON(Me)2] ({C20 diacid-γGlu-AEEA-AEEA}-[Pen]D(NMe2)T[Trp(7-Me)][Lys(Me)](Ac)[Pen]Y(CH2CH2OCH2CH2OCH2CH2NMe3+)[2Nal][Thp][Lys(Me)](Ac)N[3Pal][Sar]-NMe2; disulfide 1-6)	50 to 500 nM	< 0.5 nM
C=C(CN(C)C(=O)C(Cc1cccnc1)NC(=O)[C@H](CC(N)=O)NC(=O)[C@H](CCCCN(C)C(C)=O)NC(=O)C1(NC(=O)[C@H](Cc2ccc3ccccc3c2)NC(=O)[C@H](Cc2ccc(OCCNC(=O)C[N+](C)(C)CCCC(=O)CCOCCOCCOCCOCCOCCOCCNC(=O)CC[C@H](NC(=O)CCCCCCCCCCCCCCCCC(=O)O)C(=O)O)cc2)NC(=O)[C@H]2NC(=O)[C@H](CCCCN(C)C(C)=O)NC(=O)[C@H](Cc3c[nH]c4ccccc34)NC(=O)[C@H]([C@@H](C)O)NC(=O)[C@H](CC)NC(=O)[C@@H](N)C(C)(C)SSC2(C)C)CCCCC1)N(C)C (stereo partly drawn) [compound 142, cPEG3aCO-Pen(3)-N(N(Me)2)-T-7MeW-K(NMeAc)-Pen(3)-AEF(SP6PEG6gEC18OH)-2Nal-THP-K(NMeAc)-N-3Pya-Sar-CON(Me)2] (H-[Pen][Abu]TW[Lys(Me)](Ac)[Pen][AEF](X30)[2Nal][Ac6c][Lys(Me)](Ac)N[ξ3Pal]-X31; disulfide 1-6)	< 50 nM	< 0.5 nM
CC(=O)NCCCC[C@@H]1NC(=O)[C@H](Cc2c[nH]c3c(C)cccc23)NC(=O)[C@H]([C@@H](C)O)NC(=O)[C@H](CC(N)=O)NC(=O)[C@@H](NC(=O)[C@@H](CCCNC(=N)N)NC(C)=O)C(C)(C)SSC(C)(C)[C@@H](C(=O)N[C@@H](Cc2ccc(OCCCCC[N+](C)(C)C)cc2)C(=O)N[C@@H](Cc2ccc3ccccc3c2)C(=O)NC2(C(=O)N[C@@H](CCCCNC(=O)CCOCCOCCOCCOCCOCCOCCOCCOCCOCCOCCOCCOCCNC(=O)CC[C@H](NC(=O)CCCCCCCCCCCCCCCCC(=O)O)C(=O)O)C(=O)N[C@@H](CC(N)=O)C(=O)N[C@@H](Cc3cccnc3)C(=O)N(C)CC(=O)N(C)C)CCOCC2)NC1=O [compound 123, cPEG3aCO-Pen(3)-N(N(Me)2)-T-7MeW-K(NMeAc)-Pen(3)-TMAPF-2Nal-THP-K(PEG12gEC18OH)-N-3Pya-Sar-CON(Me)2] (Ac-[dR][Pen]NT[Trp(7-Me)]K(Ac)[Pen]Y(X1)[2Nal][Thp]K([PEG12-γGlu-C18 diacid])N[3Pal][Sar]-NMe2; disulfide 2-7)	< 50 nM	< 0.5 nM
